Assay in all cases: biochemical
What all share (set-up): DiscoveRx KINOMEscan active site-directed competition binding; percent of control kinase bound to immobilised ligand

One assay deals with T1, MAP3K3 (Homo sapiens, UniProt Q99759).
T1 sequence (Q99759 1-626): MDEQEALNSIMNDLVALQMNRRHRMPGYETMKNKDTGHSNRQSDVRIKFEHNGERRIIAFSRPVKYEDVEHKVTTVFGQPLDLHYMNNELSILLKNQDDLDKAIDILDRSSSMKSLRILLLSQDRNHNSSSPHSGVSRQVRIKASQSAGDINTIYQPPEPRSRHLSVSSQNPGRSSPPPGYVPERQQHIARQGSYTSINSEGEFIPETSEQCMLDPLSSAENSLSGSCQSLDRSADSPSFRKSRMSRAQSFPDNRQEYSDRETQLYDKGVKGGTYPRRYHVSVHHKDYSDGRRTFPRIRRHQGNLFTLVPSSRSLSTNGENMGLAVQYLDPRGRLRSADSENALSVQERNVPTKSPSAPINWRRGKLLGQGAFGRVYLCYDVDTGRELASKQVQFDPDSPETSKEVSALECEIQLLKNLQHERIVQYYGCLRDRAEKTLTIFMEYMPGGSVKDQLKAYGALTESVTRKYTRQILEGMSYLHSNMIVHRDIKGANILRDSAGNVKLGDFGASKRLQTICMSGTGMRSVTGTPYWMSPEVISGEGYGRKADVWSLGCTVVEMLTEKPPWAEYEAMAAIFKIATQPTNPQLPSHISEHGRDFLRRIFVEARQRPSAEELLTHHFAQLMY

Assay [1] deals with T2, RPS6KA4(Kin.Dom.1-N-terminal) (Homo sapiens, UniProt O75676).
T2 construct: Kin.Dom.1-N-terminal
T2 sequence (O75676 whole entry): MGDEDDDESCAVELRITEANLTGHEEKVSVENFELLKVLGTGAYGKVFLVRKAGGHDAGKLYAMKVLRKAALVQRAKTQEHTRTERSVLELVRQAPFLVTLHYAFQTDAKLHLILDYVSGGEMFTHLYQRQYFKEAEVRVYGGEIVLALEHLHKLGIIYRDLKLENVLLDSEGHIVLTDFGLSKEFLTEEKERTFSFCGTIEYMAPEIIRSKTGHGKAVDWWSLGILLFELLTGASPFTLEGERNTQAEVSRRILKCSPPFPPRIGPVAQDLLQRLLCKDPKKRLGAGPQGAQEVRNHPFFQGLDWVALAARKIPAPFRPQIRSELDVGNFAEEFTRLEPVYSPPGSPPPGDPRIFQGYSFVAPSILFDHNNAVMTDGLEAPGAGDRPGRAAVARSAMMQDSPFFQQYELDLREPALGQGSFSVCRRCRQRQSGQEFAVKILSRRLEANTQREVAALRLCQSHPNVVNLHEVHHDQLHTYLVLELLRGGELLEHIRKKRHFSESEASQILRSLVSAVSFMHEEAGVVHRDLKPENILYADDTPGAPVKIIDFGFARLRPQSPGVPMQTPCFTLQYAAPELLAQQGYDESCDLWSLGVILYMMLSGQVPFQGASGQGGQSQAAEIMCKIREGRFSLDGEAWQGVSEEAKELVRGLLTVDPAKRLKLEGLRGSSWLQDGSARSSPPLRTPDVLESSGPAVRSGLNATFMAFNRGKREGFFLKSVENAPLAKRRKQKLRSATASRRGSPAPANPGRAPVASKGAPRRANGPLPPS

The next assay concerns the target PRKCQ (Homo sapiens, UniProt Q04759).
A further assay concerns the target T3, MRCKA (Homo sapiens, UniProt Q5VT25).
T3 construct: gene CDC42BPA

The target in a further assay is T4, IKK-epsilon (Homo sapiens, UniProt Q14164).
T4 construct: gene IKBKE
T4 sequence (Q14164 1-716): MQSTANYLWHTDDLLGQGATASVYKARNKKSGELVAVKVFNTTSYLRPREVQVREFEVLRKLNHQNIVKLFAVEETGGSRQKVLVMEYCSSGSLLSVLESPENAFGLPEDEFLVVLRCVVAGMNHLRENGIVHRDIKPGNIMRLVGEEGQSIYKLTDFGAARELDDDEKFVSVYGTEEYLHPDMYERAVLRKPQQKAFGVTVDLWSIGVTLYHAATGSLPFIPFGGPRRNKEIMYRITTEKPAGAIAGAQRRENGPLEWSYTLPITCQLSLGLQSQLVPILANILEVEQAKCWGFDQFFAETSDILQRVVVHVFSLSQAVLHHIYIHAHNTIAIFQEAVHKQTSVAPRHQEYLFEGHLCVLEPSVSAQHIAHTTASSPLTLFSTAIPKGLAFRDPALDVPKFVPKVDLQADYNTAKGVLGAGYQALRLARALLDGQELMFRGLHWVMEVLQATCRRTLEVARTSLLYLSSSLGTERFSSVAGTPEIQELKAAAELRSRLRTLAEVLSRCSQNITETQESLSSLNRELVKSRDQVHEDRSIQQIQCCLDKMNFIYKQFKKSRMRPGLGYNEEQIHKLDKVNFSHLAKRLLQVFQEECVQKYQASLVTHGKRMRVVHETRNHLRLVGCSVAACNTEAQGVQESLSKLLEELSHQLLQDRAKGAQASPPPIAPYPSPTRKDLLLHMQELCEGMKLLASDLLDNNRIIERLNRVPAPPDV

The next assay has as its target T5, MERTK (Homo sapiens, UniProt Q12866).
T5 sequence (Q12866 1-999): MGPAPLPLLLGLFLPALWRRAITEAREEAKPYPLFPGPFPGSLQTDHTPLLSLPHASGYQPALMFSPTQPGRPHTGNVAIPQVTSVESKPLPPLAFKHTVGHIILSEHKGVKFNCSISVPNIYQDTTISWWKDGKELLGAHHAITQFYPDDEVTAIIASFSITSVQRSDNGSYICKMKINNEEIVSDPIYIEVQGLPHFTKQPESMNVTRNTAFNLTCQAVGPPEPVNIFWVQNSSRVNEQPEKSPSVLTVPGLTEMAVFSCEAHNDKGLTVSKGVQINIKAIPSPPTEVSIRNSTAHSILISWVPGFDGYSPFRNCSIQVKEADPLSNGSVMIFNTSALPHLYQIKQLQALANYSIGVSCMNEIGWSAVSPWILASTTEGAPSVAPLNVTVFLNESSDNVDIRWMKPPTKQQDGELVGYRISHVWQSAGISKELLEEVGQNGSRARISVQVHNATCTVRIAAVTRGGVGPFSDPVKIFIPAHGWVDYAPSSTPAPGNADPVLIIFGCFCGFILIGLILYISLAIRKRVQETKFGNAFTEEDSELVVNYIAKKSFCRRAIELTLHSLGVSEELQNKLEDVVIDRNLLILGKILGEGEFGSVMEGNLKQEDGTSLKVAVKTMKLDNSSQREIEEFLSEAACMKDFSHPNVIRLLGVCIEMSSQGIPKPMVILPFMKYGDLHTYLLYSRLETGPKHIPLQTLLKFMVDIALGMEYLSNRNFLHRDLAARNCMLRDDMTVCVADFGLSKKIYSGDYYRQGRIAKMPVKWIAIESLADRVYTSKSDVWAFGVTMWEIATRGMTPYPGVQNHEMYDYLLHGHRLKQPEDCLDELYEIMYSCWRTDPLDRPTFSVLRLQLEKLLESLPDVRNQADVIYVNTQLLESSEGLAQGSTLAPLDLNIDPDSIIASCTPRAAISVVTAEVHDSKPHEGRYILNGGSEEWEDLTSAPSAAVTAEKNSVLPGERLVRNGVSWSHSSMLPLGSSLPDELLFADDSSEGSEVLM

The target of assay [2] is T6, RSK1(Kin.Dom.2-C-terminal) (Homo sapiens, UniProt Q15418).
T6 construct: gene RPS6KA1; Kin.Dom.2-C-terminal
T6 sequence (Q15418 whole entry): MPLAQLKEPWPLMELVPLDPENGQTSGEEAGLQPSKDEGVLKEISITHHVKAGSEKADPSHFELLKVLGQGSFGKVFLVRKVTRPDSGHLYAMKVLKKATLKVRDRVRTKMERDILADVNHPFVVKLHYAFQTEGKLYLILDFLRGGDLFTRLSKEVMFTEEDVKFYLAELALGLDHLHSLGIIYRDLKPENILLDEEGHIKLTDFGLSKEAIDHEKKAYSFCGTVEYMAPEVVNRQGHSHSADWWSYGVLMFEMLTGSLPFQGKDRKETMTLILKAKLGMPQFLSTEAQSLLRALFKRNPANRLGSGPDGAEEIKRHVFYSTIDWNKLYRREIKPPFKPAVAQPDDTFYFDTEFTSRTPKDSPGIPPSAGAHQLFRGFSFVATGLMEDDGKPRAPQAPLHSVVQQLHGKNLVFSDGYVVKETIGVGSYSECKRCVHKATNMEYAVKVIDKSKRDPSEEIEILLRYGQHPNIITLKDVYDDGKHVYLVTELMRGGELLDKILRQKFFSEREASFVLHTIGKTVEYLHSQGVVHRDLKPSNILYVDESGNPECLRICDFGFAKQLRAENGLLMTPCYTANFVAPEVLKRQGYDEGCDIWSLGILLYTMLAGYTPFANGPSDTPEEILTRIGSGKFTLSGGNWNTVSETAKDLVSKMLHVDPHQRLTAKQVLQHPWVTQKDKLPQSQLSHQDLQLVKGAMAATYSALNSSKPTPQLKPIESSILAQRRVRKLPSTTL

The mark [3] stands for this setting: read-out: Niraparib (MK-4827) / %Ctrl @ 10000nM.
Setting [4] is: read-out: Olaparib / %Ctrl @ 10000nM.
[5] abbreviates: read-out: Rucaparib / %Ctrl @ 10000nM, binding competition, % of control.
Where [6] appears, read: read-out: Talazoparib (BMN 673) / %Ctrl @ 10000nM.

The values below come from article PMC7026418, “The kinase polypharmacology landscape of clinical PARP inhibitors” (Scientific Reports, 2020).

Where two headings read alike, the source gives them in different places.

T3 sequence (Q5VT25 whole entry): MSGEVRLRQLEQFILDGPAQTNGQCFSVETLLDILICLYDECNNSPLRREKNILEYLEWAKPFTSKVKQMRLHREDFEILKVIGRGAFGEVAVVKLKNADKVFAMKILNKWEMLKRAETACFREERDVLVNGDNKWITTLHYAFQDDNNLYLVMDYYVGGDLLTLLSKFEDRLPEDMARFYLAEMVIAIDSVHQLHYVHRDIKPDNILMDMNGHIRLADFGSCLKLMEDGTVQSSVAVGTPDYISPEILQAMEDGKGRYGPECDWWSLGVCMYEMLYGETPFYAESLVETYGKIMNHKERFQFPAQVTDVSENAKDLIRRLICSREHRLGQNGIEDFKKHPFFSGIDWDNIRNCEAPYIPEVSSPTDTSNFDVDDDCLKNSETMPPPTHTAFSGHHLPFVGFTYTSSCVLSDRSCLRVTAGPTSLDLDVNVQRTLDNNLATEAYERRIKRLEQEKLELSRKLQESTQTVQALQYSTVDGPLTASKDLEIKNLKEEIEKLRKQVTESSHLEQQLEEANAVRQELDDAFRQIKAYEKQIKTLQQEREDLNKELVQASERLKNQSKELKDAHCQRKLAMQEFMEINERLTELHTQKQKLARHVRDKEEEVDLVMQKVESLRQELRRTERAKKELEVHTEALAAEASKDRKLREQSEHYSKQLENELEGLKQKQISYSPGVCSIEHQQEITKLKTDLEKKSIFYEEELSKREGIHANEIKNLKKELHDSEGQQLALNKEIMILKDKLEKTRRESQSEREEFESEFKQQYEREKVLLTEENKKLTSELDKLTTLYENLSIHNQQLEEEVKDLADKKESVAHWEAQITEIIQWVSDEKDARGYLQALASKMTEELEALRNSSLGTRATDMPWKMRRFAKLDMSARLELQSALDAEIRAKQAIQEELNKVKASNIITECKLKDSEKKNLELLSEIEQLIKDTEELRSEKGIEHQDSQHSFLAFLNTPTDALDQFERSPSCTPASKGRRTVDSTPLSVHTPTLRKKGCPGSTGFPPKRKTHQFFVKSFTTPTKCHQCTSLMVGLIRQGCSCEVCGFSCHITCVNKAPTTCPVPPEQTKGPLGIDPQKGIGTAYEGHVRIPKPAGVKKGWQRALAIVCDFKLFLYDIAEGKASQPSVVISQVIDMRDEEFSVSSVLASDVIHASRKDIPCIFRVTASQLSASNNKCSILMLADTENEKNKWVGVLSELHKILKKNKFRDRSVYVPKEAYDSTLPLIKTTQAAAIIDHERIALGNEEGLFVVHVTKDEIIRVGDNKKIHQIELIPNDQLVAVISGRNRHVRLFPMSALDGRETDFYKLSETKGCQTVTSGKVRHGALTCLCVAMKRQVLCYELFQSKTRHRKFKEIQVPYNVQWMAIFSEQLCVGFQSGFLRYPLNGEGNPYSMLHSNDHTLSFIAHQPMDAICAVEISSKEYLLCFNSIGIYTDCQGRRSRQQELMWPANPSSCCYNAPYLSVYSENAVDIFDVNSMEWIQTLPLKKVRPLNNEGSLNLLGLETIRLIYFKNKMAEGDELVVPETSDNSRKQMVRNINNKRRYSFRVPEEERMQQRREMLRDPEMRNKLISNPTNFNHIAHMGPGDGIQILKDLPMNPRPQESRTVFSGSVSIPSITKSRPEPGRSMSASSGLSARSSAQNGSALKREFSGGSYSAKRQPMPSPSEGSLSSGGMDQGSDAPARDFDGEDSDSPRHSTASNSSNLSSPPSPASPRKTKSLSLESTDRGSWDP
PRKCQ, sequence (Q04759 whole entry): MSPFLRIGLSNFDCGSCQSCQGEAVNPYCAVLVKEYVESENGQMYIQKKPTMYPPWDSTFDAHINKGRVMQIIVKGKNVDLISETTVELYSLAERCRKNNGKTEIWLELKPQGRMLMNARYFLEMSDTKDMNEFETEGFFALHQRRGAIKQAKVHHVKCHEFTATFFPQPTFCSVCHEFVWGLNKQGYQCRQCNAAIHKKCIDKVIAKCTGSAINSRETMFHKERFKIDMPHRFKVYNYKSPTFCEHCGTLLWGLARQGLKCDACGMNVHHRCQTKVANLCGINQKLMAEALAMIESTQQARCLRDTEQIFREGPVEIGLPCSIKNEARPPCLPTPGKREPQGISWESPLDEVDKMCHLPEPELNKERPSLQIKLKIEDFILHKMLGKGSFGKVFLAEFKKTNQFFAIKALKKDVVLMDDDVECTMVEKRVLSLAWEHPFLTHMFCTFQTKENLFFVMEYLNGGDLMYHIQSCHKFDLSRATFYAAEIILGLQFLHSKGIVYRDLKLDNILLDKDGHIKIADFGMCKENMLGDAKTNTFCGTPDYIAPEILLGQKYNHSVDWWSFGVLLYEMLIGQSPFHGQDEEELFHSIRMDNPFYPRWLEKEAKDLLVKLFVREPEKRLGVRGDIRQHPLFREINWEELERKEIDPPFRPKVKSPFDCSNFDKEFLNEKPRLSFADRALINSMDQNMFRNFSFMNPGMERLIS

On to `NC(=O)c1cccc2cn(-c3ccc([C@@H]4CCCNC4)cc3)nc12` [Niraparib], for which the percent of control binding at 10 µM on MAP3K3 (setting [3]) was determined as 100%; in assay [1] (setting [3]), 100%; at PRKCQ (setting [3]), 73%; at MRCKA (setting [3]) it was 100%; on IKK-epsilon (setting [3]), 76%; on MERTK (setting [3]), 99%. For the same molecule, the percent of control binding at 10 µM in assay [2] (setting [3]) was 93%.
Take `O=C(c1cc(Cc2n[nH]c(=O)c3ccccc23)ccc1F)N1CCN(C(=O)C2CC2)CC1` [Olaparib]: the percent of control binding at 10 µM on MAP3K3 (setting [4]) was 88%; in assay [1] (setting [4]) it was 100%; at PRKCQ (setting [4]), 95%; on MRCKA (setting [4]), 98%; at IKK-epsilon (setting [4]), 70%; at MERTK (setting [4]) it was 83%. In assay [2] (setting [4]), the percent of control binding at 10 µM was 76%.
Take `CNCc1ccc(-c2[nH]c3cc(F)cc4c3c2CCNC4=O)cc1` [Rucaparib]: the percent of control binding at 10 µM at MAP3K3 (setting [5]) is 85%; in assay [1] (setting [5]), 100%; at PRKCQ (setting [5]) it was 93%; at MRCKA (setting [5]), 97%; on IKK-epsilon (setting [5]), 73%; on MERTK (setting [5]), 64%. Moreover, the percent of control binding at 10 µM in assay [2] (setting [5]) was 70%.
For `Cn1ncnc1[C@H]1c2n[nH]c(=O)c3cc(F)cc(c23)N[C@@H]1c1ccc(F)cc1` [Talazoparib], the percent of control binding at 10 µM at MAP3K3 (setting [6]) was 94%; in assay [1] (setting [6]) it was 61%; on PRKCQ (setting [6]), 89%; at MRCKA (setting [6]) it was 100%; at IKK-epsilon (setting [6]) it was 90%; at MERTK (setting [6]) it was 98%. Further, in assay [2] (setting [6]), the percent of control binding at 10 µM came to 100%.
